Source: patent US20090328243A1, “Secreted proteins as markers for cell differentiation” (priority 2003, published 2009)
Where two headings read alike, the source gives them in different places.

Columns and labels:
[1] = test system: ES cells stably transfected with the α-MHC-SEAP vector (D3 mouse embryonic stem cells), differentiation into cardiac cells; conditions: EB culture supernatants after 13 days
Description: After 13 days culture supernatants were assayed for SEAP activity. Shown are mean values of duplicate samples from which background SEAP activity was substracted. Activities are expressed as percentage of SEAP activity in samples containing only solvent (DMSO) but no retinoic acid.
All incubations of cell cultures were performed at 37° C. in a humidified atmosphere containing 5% CO2.
Cells were collected by centrifugation (800 g for 5 min) and resuspended in Iscove's Modified Dulbecco's Medium (IMDM, Invitrogen) supplemented with 20% (v/v) fetal bovine serum (FBS, Invitrogen) at a density of 2×10^6 cells/ml. To aggregate ES cells, 4 ml of this suspension were incubated on a 6 cm bacteriological dish (Greiner) on a rocking platform (GFL 3006) with agitation (50 rpm). After 6 hours, 2 ml of that culture were added to 13 ml IMDM containing 20% FBS in a T25 flask (Falcon). The flask was incubated with rocking (50 rpm; GFL 3006) for 18 hours. During this procedure ES cell aggregates (embryoid bodies; EBs) were formed.
In 10 cm petri dishes (bacteriological grade, Greiner) medium was prepared consisting of IMDM supplemented with 20% FBS and retinoic acid added from above stocks to yield final concentrations of 10^−7 M, 10^−8 M, 10^−9 M, 10^−10 M, 10^−11 M, and 10^−12 M retinoic acid, respectively. One dish received DMSO (final concentration 0.1% (v/v)) without retinoic acid (solvent control). Each dish contained 10 ml of medium. 70 EBs were transferred into each petri dish and incubated for 4 days.
Subsequently, EBs were transferred to 6-well plates (tissue culture grade; Becton-Dickinson). Each well contained 3 ml IMDM with 20% FBS and retinoic acid and DMSO as described above for the culture in 10 cm dishes. […]
Samples were assayed for SEAP activity using the Great EscAPe SEAP Fluorescence Detection Kit (Becton-Dickinson) following the manufacturer's instructions. Fluorescence was measured using a microplate reader (Safire, Tecan). Background activity was determined by assaying a sample of fresh medium (Knockout™ D-MEM supplemented with 20% (v/v) Knockout™ SR).

[2] = test system: ES cells; conditions: in vitro; literature (Seiler et al., ALTEX 2002); cited from earlier work

For `CC1=C(/C=C/C(C)=C/C=C/C(C)=C/C(=O)O)C(C)(C)CCC1` [retinoic acid, all-trans retinoic acid], the SEAP activity ([1]; 10^−8 M retinoic acid, solvent (DMSO) control) was “decreased sharply”, the SEAP activity ([1]; retinoic acid at concentrations higher than 10^−8 M (10^−7 M)) was “no activity was observed” and the “SEAP activity as compared to controls” value ([1]; retinoic acid below 10^−9 M, solvent (DMSO) control) was “no influence”. The “generation of cardiomyocytes from ES cells” value [2] was “inhibit the generation of cardiomyocytes”.
